Like-named read-outs stand apart in the source and are kept apart here. Each block holds one compound with its values, some of them ahead of it.
Legend:
[1] = target: T1, pyrimidine nucleoside phosphorylase (Rattus norvegicus, UniProt F7F0D5); test: Inhibition of pyrimidine nucleoside phosphorylase activity in rat small intestine homogenate (decomposition of 5-fluoro-2'-deoxyuridine); format: biochemical, SD-strain rat
T1 construct: small intestine homogenates of an SD-strain male rat and a male beagle; from tissue; host or cells: small intestine homogenate of SD-strain male rat
Procedure: (§1) Inhibitory effects of 1-[(2-hydroxyethoxy)methyl]-5-methyluracil, 1-[(2-hydroxyethoxy)methyl]-5-fluoro-uracil, 1-[(2-hydroxyethoxy)methyl]-5-bromouracil on pyrimidine nucleoside phosphorylase activity in the small intestine homogenates of an SD-strain male rat and a male beagle were assayed with a lowering in decomposition rate of 5-fluoro-2'-deoxyuridine (concentration: 0.025 mM) and compared with the same effects of thymidine and deoxyuridine.

[2] = test system: pyrimidine nucleoside phosphorylase; test: Inhibition of pyrimidine nucleoside phosphorylase activity in beagle small intestine homogenate (decomposition of 5-fluoro-2'-deoxyuridine); format: biochemical; conditions: for Half-life of 5-fluoro-2'-deoxyuridine in presence of inhibitor / Inhibitory percentage: 0.4% w/v beagle small intestine homogenate, pH 7.0, 37° C.
Procedure: as §1

[3] = as above; format: biochemical; conditions: dog, small intestine homogenate, pH 7
Procedure: as §1

[4] = test system: pyrimidine nucleoside phosphorylase; conditions: cited from earlier work
[5] = test system: established cell line derived from a mouse; conditions: same molar concentration, in vitro; cited from earlier work
mouse leukemia L1210 = test: Antitumor effect on mouse leukemia L1210 (increase in life span), oral administration; format: in vivo; conditions: days 1, 3, 5
Source text: The antitumor effect for mouse leukemia L1210 by a simultaneous oral administration of the compounds of the present invention 3',5'-didodecanoyl-5-fluoro-2'-deoxyuridine and 1-[[2-(octadecanoyloxy)ethoxy]methyl]-5-methyluracil was compared with those of (a) 5-fluoro-2'-deoxyuridine alone, (b) 3',5'-didodecanoyl-5-fluoro-2'-deoxyuridine alone, and (c) a simultaneous oral administration of 3',5'-didodecanoyl-5-fluoro-2'-deoxyuridine and 1-[(2-hydroxyethoxy)methyl]-5-methyluracil.
10^5 ascite tumor cells of mouse leukemia L1210 7 days after transplantation were transplanted intraperioneally into mouse (.male.8 weeks, Ca 25-26 g, 5 mice/group) and provided for experiments. 24 hours after transplantation of the tumor cells, the pharmaceuticals were administered orally three times on day 1, day 3 and day 5.
The antitumor effect of the pharmaceuticals were shown by the increase in life span (ILS) of the group administered with pharamaceuticals relative to the control group (with no pharmaceutical administered) (line extension %).

[6] = Hydrophilic properties: retention time in normal phase HPLC (Nucleosil 5CN); format: physicochemical; conditions: n-hexane:ethanol = 88:12, 1.2 ml/min, index of hydrophilic properties
Procedure: The retention times of the compounds of the present invention in normal phase system high performance liquid chromatograph (Nucleosil) 5 CN column were measured.

[7] = Enzymatic hydrolyzability in rat duodenum epithelial homogenate; format: in vitro ADME; conditions: rat duodenum epithelial homogenate 1% w/v, pH 7.0, 37° C.
Procedure: The hydrolysis rates of the compounds of the present invention were measured at 37° C. in rat duodenum epithelial homogenate (1%, w/v; pH 7.0).

[8] = Lipid solubility: retention time in reversed phase HPLC (Lichrosorb RP-18); format: physicochemical; conditions: RP-18 4.0 × 130 mm, 1.2 ml/min, index of lipid solubility
Procedure: The retention time of the compounds of the present invention in reversed phase system high performance liquid chromatograph (Lichrosorb RP-18 column) was measured in two kinds of solvent systems.

thymidine phosphorylase = test: Inhibition of thymidine phosphorylase activity and enzymatic stability in small intestine; format: biochemical; conditions: rat and beagle small intestine
Procedure: as §1

[9] = Inhibition of pyrimidine nucleoside phosphorylase activity in beagle small intestine homogenate (decomposition of 5-fluoro-2'-deoxyuridine); format: biochemical; conditions: dog; inhibitor 0.025 mM; 0.4% w/v beagle small intestine homogenate, pH 7.0, 37° C.
[10] = target: T1, pyrimidine nucleoside phosphorylase; test: Inhibition of pyrimidine nucleoside phosphorylase activity in rat small intestine homogenate (decomposition of 5-fluoro-2'-deoxyuridine); format: biochemical, SD-strain rat; conditions: inhibitor 0.025 mM; 0.09% w/v rat small intestine homogenate, pH 7.0, 37° C.
[11] = inhibitor 0.025 mM, 0.09% w/v rat small intestine homogenate, pH 7.0, 37° C.
[12] = inhibitor 0.025 mM, 0.09% w/v rat small intestine homogenate, pH 7.0, 37° C., read-out: Inhibitory percentage
[13] = rat, small intestine homogenate, pH 7
[14] = pH 7, read-out: Inhibitory percentage

T1 sequence (F7F0D5 1-312): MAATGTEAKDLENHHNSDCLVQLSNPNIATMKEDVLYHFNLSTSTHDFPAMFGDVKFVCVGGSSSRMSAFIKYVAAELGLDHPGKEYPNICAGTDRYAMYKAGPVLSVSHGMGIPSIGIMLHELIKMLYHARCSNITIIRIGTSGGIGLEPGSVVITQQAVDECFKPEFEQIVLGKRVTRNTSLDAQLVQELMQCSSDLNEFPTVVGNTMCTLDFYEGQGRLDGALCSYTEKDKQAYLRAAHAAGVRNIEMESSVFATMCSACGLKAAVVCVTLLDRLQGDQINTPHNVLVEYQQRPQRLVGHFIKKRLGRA

- Retention time (b) Acetonitrile:acetic acid (999:1) [8]: 3.15 min
- Retention time (a) Acetonitrile:water (19:1) [8]: 3.53 min
SMILES: CCCCCCCCCCCCCCCC(=O)OCCOCn1cc(C)c(=O)[nH]c1=O [1-[[2-(Hexadecanoyloxy)-ethoxy]-methyl]-5-methyluracil]

- Retention time (b) Acetonitrile:acetic acid (999:1) [8]: 3.00 min
- Retention time (a) Acetonitrile:water (19:1) [8]: 3.96 min
SMILES: CCCCCCCCCCCC(=O)OC[C@H]1O[C@@H](n2cc(F)c(=O)[nH]c2=O)C[C@@H]1OC(=O)CCCCCCCCCCC [3'5'-didodecanoyl-5-fluoro-2'-deoxyuridine]
- ILS (mouse leukemia L1210; 10 mg/kg/one dose alone): 0%
- ILS (mouse leukemia L1210; 30 mg/kg/one dose alone): 5%
- ILS (mouse leukemia L1210; 100 mg/kg/one dose alone): 15%
- ILS (mouse leukemia L1210; 300 mg/kg/one dose alone): 40%

- Retention time [6]: 5.48 min
- Hydrolysis rate constant [7]: 0.052 min.^-1
SMILES: CCCCCCCCCCCCCCCCCCCC(=O)OCCOCn1cc(C)c(=O)[nH]c1=O [1-[[2-(eicosanoyloxy)-ethoxy]-methyl]-5-methyluracil]

Second part, the compound before the results:

SMILES: O=c1[nH]c(=O)n(COCCO)cc1F [1-[(2-hydroxyethoxy)methyl]-5-fluorouracil]
- Half-life of 5-fluoro-2'-deoxyuridine in presence of inhibitor [1, 11]: 0.823 h
- inhibition at 25 µM [1, 12]: 65.6%
- half-life at 25 µM [1, 13]: > 16.7 h
- Half-life of 5-fluoro-2'-deoxyuridine in presence of inhibitor ([2]; inhibitor 0.025 mM): 0.78 h
- Inhibitory percentage ([2]; inhibitor 0.025 mM): 40.6%
- half-life at 25 µM [3]: > 16.7 h

SMILES: O=c1[nH]c(=O)n([C@H]2C[C@H](O)[C@@H](CO)O2)cc1F [5-Fluoro-2'-deoxyuridine, 5-fluoro-2'-deoxyuridine, reference compound]
- half-life in blood (in words) ([4]; after administration in living bodies): shorter half-life in blood
- decomposition by pyrimidine nucleoside phosphorylase (in words) ([4]; living bodies): rapidly decomposed
- Half-life of 5-fluoro-2'-deoxyuridine ([1]; rat, small intestine homogenate, 25 µM, pH 7): 0.283 h
- Half-life of 5-fluoro-2'-deoxyuridine ([2]; dog, small intestine homogenate, 25 µM, pH 7): 0.463 h
- antitumor activity relative to 5-fluorouracil [5]: 100 fold
- ILS (mouse leukemia L1210; 10 mg/kg/one dose alone): 15%
- ILS (mouse leukemia L1210; 30 mg/kg/one dose alone): 10%
- ILS (mouse leukemia L1210; 100 mg/kg/one dose alone): 15%
- ILS (mouse leukemia L1210; 300 mg/kg/one dose alone): 10%

SMILES: CCCCCCCCCCCCCC(=O)OC[C@H]1O[C@@H](n2cc(F)c(=O)[nH]c2=O)C[C@@H]1OC(=O)CCCCCCCCCCCCC [3'5'-ditetradecanoyl-5-fluoro-2'-deoxyuridine]
- Retention time [6]: 5.38 min
- Hydrolysis rate constant [7]: 0.027 min.^-1

SMILES: CCCCCCCCCCCCCCCCCC(=O)OCCOCn1cc(C)c(=O)[nH]c1=O [1-[[2-(octadecanoyloxy)ethoxy]methyl]-5-methyluracil]
- ILS (mouse leukemia L1210; 450 mg/kg/one dose alone): 12%

SMILES: O=c1ccn([C@H]2C[C@H](O)[C@@H](CO)O2)c(=O)[nH]1 [Deoxyuridine, reference compound]
- Half-life of 5-fluoro-2'-deoxyuridine in presence of inhibitor [1, 11]: 0.37 h
- inhibition at 25 µM [1, 14]: 23.4%
- half-life at 25 µM [1, 13]: 1.1 h
- Half-life of 5-fluoro-2'-deoxyuridine in presence of inhibitor ([2]; inhibitor 0.025 mM): 0.508 h
- Inhibitory percentage ([2]; inhibitor 0.025 mM): 8.8%
- half-life at 25 µM [3]: 0.538 h

SMILES: Cc1cn([C@H]2C[C@H](O)[C@@H](CO)O2)c(=O)[nH]c1=O [Thymidine, reference compound]
- inhibitory activity against thymidine phosphorylase (in words) (thymidine phosphorylase): more potenty inhibited by thymidine than by deoxyuridine
- Half-life of 5-fluoro-2'-deoxyuridine in presence of inhibitor [1, 11]: 0.51 h
- inhibition at 25 µM [1, 14]: 44.4%
- Half-life of 5-fluoro-2'-deoxyuridine in presence of inhibitor ([2]; inhibitor 0.025 mM): 0.968 h
- Inhibitory percentage ([2]; inhibitor 0.025 mM): 52.2%
- half-life at 25 µM [9]: 0.45 h
- half-life at 25 µM [10]: 1.48 h

SMILES: Cc1cn(COCCO)c(=O)[nH]c1=O [1-[(2-hydroxyethoxy)methyl]-5-methyluracil]
- Half-life of 5-fluoro-2'-deoxyuridine in presence of inhibitor [1, 11]: 1.677 h
- inhibition at 25 µM [1, 12]: 83.1%
- half-life at 25 µM [1, 13]: > 16.7 h
- Half-life of 5-fluoro-2'-deoxyuridine in presence of inhibitor ([2]; inhibitor 0.025 mM): 1.42 h
- Inhibitory percentage ([2]; inhibitor 0.025 mM): 67.3%
- half-life at 25 µM [3]: > 16.7 h
- ILS (mouse leukemia L1210; 200 mg/kg/one dose alone): 12%

SMILES: O=c1[nH]c(=O)n(COCCO)cc1Br [1-[(2-hydroxyethoxy)methyl]-5-bromouracil]
- Half-life of 5-fluoro-2'-deoxyuridine in presence of inhibitor ([1]; inhibitor 0.01 mM, 0.09% w/v rat small intestine homogenate, pH 7.0, 37° C.): 0.542 h
- inhibition at 10 µM ([1]; inhibitor 0.01 mM, 0.09% w/v rat small intestine homogenate, pH 7.0, 37° C., read-out: Inhibitory percentage): 47.7%
- half-life at 10 µM [1, 13]: > 16.7 h
- Half-life of 5-fluoro-2'-deoxyuridine in presence of inhibitor ([2]; inhibitor 0.01 mM): 1.04 h
- Inhibitory percentage ([2]; inhibitor 0.01 mM): 55.5%
- half-life at 10 µM [3]: > 16.7 h

Reference: US4916121A, “Antitumor composition comprising pyrimidine type nucleic acid derivative and 1-[(2-hydroxyethoxy)methyl]uracil derivative” (Teijin Limited, priority 1985, dated 1990)
